In data set [1] the target is T1, CCR2b (Homo sapiens, UniProt P41597).
T1 construct: expressed in transfected cells; host or cells: HEK293
T1 sequence (P41597 1-360 isoform P41597-2): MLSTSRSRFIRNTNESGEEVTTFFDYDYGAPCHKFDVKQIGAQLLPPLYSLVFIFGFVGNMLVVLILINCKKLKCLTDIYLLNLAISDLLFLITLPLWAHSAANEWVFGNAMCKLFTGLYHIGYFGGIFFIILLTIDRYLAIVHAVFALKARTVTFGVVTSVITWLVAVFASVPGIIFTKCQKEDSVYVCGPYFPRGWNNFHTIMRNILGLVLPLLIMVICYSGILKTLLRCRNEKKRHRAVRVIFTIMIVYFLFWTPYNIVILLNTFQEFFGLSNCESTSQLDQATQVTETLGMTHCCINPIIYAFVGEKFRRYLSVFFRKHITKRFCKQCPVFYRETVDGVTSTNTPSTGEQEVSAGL
In words: CCR2 inhibitory effect on Ca2+ flux (HEK293/CCR2b, MCP-1 stimulated). The note with it: HEK293/CCR2b cells, MCP-1 added; read-out: Blocking Ca^2+ flux, IC50. The format is cell-based. The procedure: After seeding CCR2b transformed cell (HEK293/CCR2b) on black-clear bottom plate coated with lysine, it was adapted for 24 hours and exchanged into serum free media (DMEM) and allowed to cultivate overnight. Next day After the compound is treated with Flour-4 (calcium dye, Molecular probe) and cultivated for 50 min on incubator, it is washed calcium-free buffer solution and pretreated for 10-15 min. It is added with MCP-1 and its signal is measured with FlexStation^II (Molecular device).
Background: A change in cytosolic calcium serves as a functional read-out for many receptors and channels.

For data set [2], the target named is CYP3A4 (Homo sapiens, UniProt P08684). In words: CYP450 inhibitory activity, CYP3A4. In kind it is in vitro ADME. The note with it: CYP3A4 enzyme membrane, 10 μM compound, read-out: Inhibition of CYP450, % @10 μM: 3A4. The protocol:
(§1) It is analyzed inhibitory activity assay on 5 types (CYP3A4, 2C9, 2C19, 2D6, 1A2) of 11 types CYP450, drug metabolic enzyme. Luciferin detection reagent is dissolved in buffer solution and each CYP enzyme membrane is prepared.
(§2) 4-fold concentration of the compound in 6.25 μl is prepared, and added to 6.25 μl mixture containing enzyme and proper different substrate depending on enzyme types, and kept for 10 min. After reacting with 12.5 μl NADPH regeneration reagent of CYP enzyme for 30 min, adding 25 μl luciferin detection reagent and keeping for 20 min, luminescence is measured at Fusion α.

Data set [3] concerns the target CYP2C9 (Homo sapiens, UniProt P11712). Briefly: CYP450 inhibitory activity, CYP2C9. In kind it is in vitro ADME. The note with it: CYP2C9 enzyme membrane, 10 μM compound, read-out: Inhibition of CYP450, % @10 μM: 2C9. The protocol: as §1, §2
Data set [4] concerns the target CYP2C19 (Homo sapiens, UniProt P33261). In words: CYP450 inhibitory activity, CYP2C19. The format is in vitro ADME. To be noted: CYP2C19 enzyme membrane, 10 μM compound, read-out: Inhibition of CYP450, % @10 μM: 2C19. The protocol:
as §1, §2

Data set [5] deals with CYP2D6 (Homo sapiens, UniProt P10635). In words: CYP450 inhibitory activity, CYP2D6. The note with it: CYP2D6 enzyme membrane, 10 μM compound, read-out: Inhibition of CYP450, % @10 μM: 2D6. In kind it is in vitro ADME. The procedure: Luciferin detection reagent is dissolved in buffer solution and each CYP enzyme membrane is prepared. […] After reacting with 12.5 μl NADPH regeneration reagent of CYP enzyme for 30 min, adding 25 μl luciferin detection reagent and keeping for 20 min, luminescence is measured at Fusion α.

Data set [6] addresses T2, CYP1A2 (Homo sapiens, UniProt P05177).
T2 sequence (P05177 1-516): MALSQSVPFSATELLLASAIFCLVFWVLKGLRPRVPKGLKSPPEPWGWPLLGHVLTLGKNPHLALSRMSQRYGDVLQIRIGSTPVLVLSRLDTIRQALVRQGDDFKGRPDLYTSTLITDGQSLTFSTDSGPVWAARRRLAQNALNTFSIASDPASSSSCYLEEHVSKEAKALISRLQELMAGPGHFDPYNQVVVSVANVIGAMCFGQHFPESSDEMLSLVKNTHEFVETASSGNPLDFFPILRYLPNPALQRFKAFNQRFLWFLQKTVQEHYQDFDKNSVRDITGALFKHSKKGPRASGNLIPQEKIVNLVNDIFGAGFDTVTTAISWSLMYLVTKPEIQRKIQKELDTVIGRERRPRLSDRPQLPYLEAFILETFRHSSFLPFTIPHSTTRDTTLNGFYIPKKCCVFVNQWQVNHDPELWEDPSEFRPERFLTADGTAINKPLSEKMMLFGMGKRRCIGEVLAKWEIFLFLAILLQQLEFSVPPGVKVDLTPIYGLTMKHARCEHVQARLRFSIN
In words: CYP450 inhibitory activity, CYP1A2. In kind it is in vitro ADME. To be noted: CYP1A2 enzyme membrane, 10 μM compound, read-out: Inhibition of CYP450, % @10 μM: 1A2. The procedure:
as §1, §2

Data set [7] deals with HepG2. Briefly: Cytotoxicity (cell viability, MTS assay), HepG2. The format is cell-based. To be noted: 10 μM compound, vs control group. The text has this: (§3) The MTS (3-(4,5-dimethylthiazol-2-yl)-5-(3-carboxymethoxyphenyl)-2-(4-sulfophenyl)-2H-tetrazolium, inner salt, Promega, U.S.A) assay to THP-1 cell is used to measure cytotoxicity of test compound. The MTS assay is applicable to sensitively measure viability, multiplication and activity of cell and is a method using transformation the yellow MTS into insoluble formazan by dehydrogenase of mitochondria during metabolism of viable cell. The THP-1 cell is proliferated on RPMI-1640 supplemented with 10% fetal bovine serum under 37° C., at 5% CO2 incubator. Cell density is maintained around 0.5×10^6 cells/ml. THP-1 cell is poured into 96-well plate in 1×10^6 cell/ml and treating with 1, 10 μM concentration of test compound, after 24 hours 20 μl of 317 μg/ml MTS is treated to 96-well plate. Cell viability as the he absorbance of crystalline formazan of test group to control group observed at 490 nm using ELISA reader after 1 hour is calculated by following mathematical formula 2. Cell viability(%)=(Absorbance of experimental wells)/(Absorbance of control wells))×100 [Mathematical Formula 2]
(§4) The cell cytotoxicity test is performed to many cell lines, for example HepG2, NIH3T3, CHO-K1, HEK293, in addition to THP-1 illustrated above, and test procedures related to these are same or similar as described method above.
(In general: Formazan colour is commonly taken as a measure of viable cells.)

For data set [8], the system named is NIH 3T3. Briefly: Cytotoxicity (cell viability, MTS assay), NIH 3T3. The format is cell-based. The note with it: 10 μM compound, vs control group.
Description: as §3, §4

Data set [9] concerns CHO-K1. In words: Cytotoxicity (cell viability, MTS assay), CHO-K1. The format is cell-based. To be noted: 10 μM compound, vs control group.
Description: as §3, §4

Data set [10] concerns HEK 293. In words: Cytotoxicity (cell viability, MTS assay), HEK 293. The format is cell-based. To be noted: 10 μM compound, vs control group.
Description: as §3, §4

For data set [11], the target named is T3, CCR2 (Homo sapiens, UniProt P41597). In words: Inhibitory effect on MCP-1 induced chemotaxis of THP-1 cells. Also on record: endogenous in cells; host or cells: THP-1. The note with it: hMCP-1 10 ng/ml, 2 hours, read-out: Inhibition of Chemotaxis, IC50. The format is cell-based. The procedure:
Antagonistic effect on the compound on CCR2 activity was measured by leukocyte chemotaxis assay using a proper cell line.
The used cell line is THP-1 and it is proliferated RPMI-1640 supplemented with 10% fetal calf serum under 37° C. at 5% CO2 incubator. Cell density was maintained near about 0.5×10^6 cells/ml.
Cell is allowed to have chemotaxis under 37° C., 5% CO2 incubator for 2 hours. After incubating for 2 hours, cells which is not moved from the upper side of filter are removed by wiping the filter with cotton swab.
The cells moved to lower chamber was measured using fluorescent plate reader under λexcite=480 nm, λexit=520 nm.
The chemotaxis may be described as chemotaxis coefficient, ratio between mean value of cells moved under existence of MCP-1 and mean value of cells moved under absence of chemokine.

Data set [12] has as its target T3, CCR2. In words: CCR2 receptor protein binding assay ([125I]-MCP1). The note with it: [125I]-MCP1 binding, CCR2 membrane expressed in CHO cell; read-out: Affinity to CCR2 receptor, IC50. The arrangement: purchased Perkinelmer, USA; host or cells: CHO cell membranes. The procedure: The buffer used for receptor binding assay is 50 mM Hepes (pH 7.4) containing 5 mM MgCl2, 1 mM CaCl2 and 0.5% BSA. The resultant reaction mixture in final volume 0.25 ml is prepared by adding CCR2 membrane (10 μg/well), [^125I]-MCP1 to test drug in 96-well plate on [^125I]-MCP1 binding assay and is cultivated on 27° C. for 60 min.
After incubation, reaction is terminated with fast filtering through Wallac filtermat A GF/C glass fiber filter (Wallac, Finland) pre-wetted in 0.5% PEI using Inotech harvester (Inotech) and is washed in cold 50 mM Tris-HCl (pH 7.4) buffer solution. After filter is covered with MeltiLex, it is sealed in sample bag, dried on oven, and counted using MicroBeta Plus (Wallac).
[…] is used in non-specific binding measurement.

Structures are written as SMILES.

T3 sequence (P41597 whole entry): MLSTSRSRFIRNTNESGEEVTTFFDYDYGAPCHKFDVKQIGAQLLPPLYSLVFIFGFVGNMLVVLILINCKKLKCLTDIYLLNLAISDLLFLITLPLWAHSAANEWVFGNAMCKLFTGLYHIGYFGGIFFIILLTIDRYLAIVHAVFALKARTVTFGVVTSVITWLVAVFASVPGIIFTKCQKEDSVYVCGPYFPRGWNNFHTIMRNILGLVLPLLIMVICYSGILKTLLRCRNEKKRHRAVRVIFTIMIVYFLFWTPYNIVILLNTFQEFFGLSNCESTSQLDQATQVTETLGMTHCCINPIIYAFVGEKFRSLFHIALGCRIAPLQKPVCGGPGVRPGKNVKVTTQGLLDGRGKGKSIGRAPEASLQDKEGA
Sequence of CYP3A4 (P08684 whole entry): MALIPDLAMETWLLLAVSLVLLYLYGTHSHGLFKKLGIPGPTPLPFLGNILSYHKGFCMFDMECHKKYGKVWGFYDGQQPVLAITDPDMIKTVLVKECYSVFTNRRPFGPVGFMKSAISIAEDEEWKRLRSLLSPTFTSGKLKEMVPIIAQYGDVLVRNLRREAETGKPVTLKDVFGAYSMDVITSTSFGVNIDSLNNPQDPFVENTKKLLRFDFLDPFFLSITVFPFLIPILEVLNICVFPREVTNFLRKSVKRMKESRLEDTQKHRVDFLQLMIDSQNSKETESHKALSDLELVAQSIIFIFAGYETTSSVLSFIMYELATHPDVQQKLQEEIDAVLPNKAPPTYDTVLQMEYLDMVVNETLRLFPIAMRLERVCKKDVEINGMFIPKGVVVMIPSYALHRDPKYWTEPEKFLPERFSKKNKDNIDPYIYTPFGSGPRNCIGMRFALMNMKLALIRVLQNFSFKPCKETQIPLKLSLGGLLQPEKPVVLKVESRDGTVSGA
Sequence of CYP2C9 (P11712 whole entry): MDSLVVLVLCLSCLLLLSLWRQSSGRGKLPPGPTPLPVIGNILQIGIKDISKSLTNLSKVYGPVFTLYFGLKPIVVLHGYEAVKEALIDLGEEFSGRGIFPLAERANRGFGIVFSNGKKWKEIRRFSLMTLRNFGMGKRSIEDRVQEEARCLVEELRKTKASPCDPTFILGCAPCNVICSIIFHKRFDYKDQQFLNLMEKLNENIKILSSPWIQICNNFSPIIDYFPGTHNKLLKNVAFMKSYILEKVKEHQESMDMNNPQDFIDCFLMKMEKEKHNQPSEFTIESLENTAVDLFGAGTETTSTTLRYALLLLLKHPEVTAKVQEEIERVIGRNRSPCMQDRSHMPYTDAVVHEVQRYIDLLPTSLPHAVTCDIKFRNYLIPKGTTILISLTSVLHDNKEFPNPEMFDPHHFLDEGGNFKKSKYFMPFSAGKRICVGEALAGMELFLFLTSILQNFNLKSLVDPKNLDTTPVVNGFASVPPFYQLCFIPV
Sequence of CYP2C19 (P33261 whole entry): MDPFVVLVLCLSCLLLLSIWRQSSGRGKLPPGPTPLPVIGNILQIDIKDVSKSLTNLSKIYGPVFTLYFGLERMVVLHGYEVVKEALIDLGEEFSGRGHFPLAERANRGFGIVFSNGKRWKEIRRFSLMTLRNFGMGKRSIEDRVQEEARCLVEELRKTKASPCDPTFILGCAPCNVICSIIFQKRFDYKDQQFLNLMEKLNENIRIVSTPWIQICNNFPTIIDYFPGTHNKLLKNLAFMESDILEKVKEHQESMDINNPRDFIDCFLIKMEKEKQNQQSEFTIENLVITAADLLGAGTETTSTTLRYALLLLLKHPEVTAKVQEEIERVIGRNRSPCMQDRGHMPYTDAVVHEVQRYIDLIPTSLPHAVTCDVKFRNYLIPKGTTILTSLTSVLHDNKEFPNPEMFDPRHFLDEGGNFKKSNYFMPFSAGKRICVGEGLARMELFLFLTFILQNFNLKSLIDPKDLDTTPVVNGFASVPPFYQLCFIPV
Sequence of CYP2D6 (P10635 whole entry, the tested form may be a part): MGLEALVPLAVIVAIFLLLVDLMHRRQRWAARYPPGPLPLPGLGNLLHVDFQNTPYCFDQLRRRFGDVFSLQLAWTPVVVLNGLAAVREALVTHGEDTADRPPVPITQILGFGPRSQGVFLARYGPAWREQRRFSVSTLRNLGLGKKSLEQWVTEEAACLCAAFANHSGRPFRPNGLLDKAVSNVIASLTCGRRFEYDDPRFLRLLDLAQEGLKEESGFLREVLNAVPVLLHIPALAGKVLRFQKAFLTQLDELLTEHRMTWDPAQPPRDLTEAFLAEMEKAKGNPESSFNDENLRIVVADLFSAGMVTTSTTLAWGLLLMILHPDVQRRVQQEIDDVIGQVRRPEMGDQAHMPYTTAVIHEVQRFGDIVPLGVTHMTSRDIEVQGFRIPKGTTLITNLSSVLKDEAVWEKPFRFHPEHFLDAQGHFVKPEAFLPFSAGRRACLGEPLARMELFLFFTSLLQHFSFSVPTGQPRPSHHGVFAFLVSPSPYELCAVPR

What is called IC50 is the midpoint of a concentration-inhibition curve. Broadly, the inhibition is the change of the read-out against control, counted positive when it falls. For the compound `O=C(CNC(=O)c1cccc(C(F)(F)F)c1)N[C@@H]1CCN(CCN2CCN(C(=O)c3ccccc3)CC2)C1` [Example 6, N-{[1-(2-(4-benzoylpiperazine-1-yl)ethyl)-pyrrolidine-(3R)-yl-carbamoyl]-methyl}-3-trifluoromethylbenzamide], the IC50 in data set [1] worked out at 0.018 µM; in data set [11] it was 0.009 µM; in [12], 0.99 µM. The inhibition at 30 min, 10 µM is 6.5% in data set [2]; 23.6% in data set [3]; 14.2% in data set [4]; 8.5% in data set [5]; 23.5% in data set [6]. In [7], the “Cell viability, % @10 μM: HepG2” value amounted to 73.5%. Moreover, in data set [8], the “Cell viability, % @10 μM: NIH 3T3” value was 70.6%. Also, the “Cell viability, % @10 μM: CHO-K1” value in data set [9] is 84.6%. Besides, the “Cell viability, % @10 μM: HEK 293” value in data set [10] is listed as 59.3%.

Turning to `Cc1ccccc1C(=O)N1CCN(CCN2CC[C@@H](NC(=O)CNC(=O)c3cccc(C(F)(F)F)c3)C2)CC1` [Example 7, N-{[1-(2-(4-(2-methylbenzoyl)piperazine-1-yl)ethyl)-pyrrolidine-(3R)-yl-carbamoyl]-methyl}-3-trifluoromethylbenzamide], the IC50 in [1] came to 0.12 µM; in data set [11] it was 0.07 µM; in data set [12], 4.44 µM. Further, the inhibition at 30 min, 10 µM was 28.2% in data set [2]; 19% in [3]; 9.5% in data set [4]; -3.5% in data set [5]; 6.6% in data set [6]. In data set [7], the “Cell viability, % @10 μM: HepG2” value was found to be 105.8%. The “Cell viability, % @10 μM: NIH 3T3” value in [8] stood at 73.0%. Also, the “Cell viability, % @10 μM: CHO-K1” value in [9] turned out to be 80.1%. Moreover, the “Cell viability, % @10 μM: HEK 293” value in data set [10] was 66.9%.

(Values after patent publication US8575173B2, “Piperazinyl 3-aminopyrrolidine derivatives as a CCR2 antagonists” (Yang Ji Chemical Co., Ltd., priority 2009, dated 2013).)
